Assay results taken from patent US10100079B2, “Progesterone-cationic lipid hybrid as anticancer agent and the process of synthesis thereof” (Council of Scientific & Industrial Research, priority 2016, dated 2018).
Where two headings read alike, the source gives them in different places.

Tests used:
MCF7 = experiment: MTT cytotoxicity assay, MCF7; format: cell-based; settings: Homo sapiens, read-out: IC50 MCF7
Method: (§1) All cells were grown into mycoplasma free condition. […] All cells were grown up to 75-85% confluency after which cells were trypsinized, counted and seeded, in 96-well plates for cell viability studies, 6-well plates for apoptosis studies, 60 mm dish for cell cycle studies and in 25 cm^2 or 75 cm^2 tissue culture flasks for Western blot studies. The primary stock of the cationic progesterone molecules were made in cell culture grade DMSO and from that secondary stock was prepared by serial dilution with cell culture grade DMSO. The final working concentrations were prepared by diluting the secondary stock in cell culture media keeping the DMSO concentration in working solution below 0.2% with respect to cell culture medium. […] For this assay, 12-18 h before treatment cells were plated in 96-well plate at 5000 cells/well density. […] After completion of the treatment, 10 μL of MTT solution (5 mg/mL) was added in each well and incubated for 4 h. Then the media was removed carefully, and the reduced MTT was dissolved in 1:1 (v/v) DMSO/Methanol and absorbance was measured using multimode reader (Synergy H1, BioTek). Results were represented as percentage of viability={[A550(treated cells)−background]/[A550(untreated cells)−background]}×100. The result was summarized and provided as IC50 table in Table 1.

B16F10 = experiment: MTT cytotoxicity assay, B16F10; format: cell-based, murine
Method: as §1

OVCAR-3 = experiment: MTT cytotoxicity assay, OVCAR-3; format: cell-based; settings: Homo sapiens, read-out: IC50 OVCAR-3
Method: as §1

CHO = experiment: MTT cytotoxicity assay, CHO; format: cell-based, Chinese hamster; settings: Cricetulus griseus, read-out: IC50 CHO
Method: as §1

B16F10 (PgR-negative) = experiment: Cell cycle assay by flow cytometry (PI), B16F10; format: cell-based, murine; settings: B16F10, 10 μM, 24 h
Method: To measure the cellular DNA content, cell cycle assay was carried out. In this assay, first cells were synchronized at early S-phase by double thymidine blocking. When cell confluency was reached around 25-30% in 60 mm dish, cells were treated with 2 mM thymidine, diluted in 10% FBS containing DMEM, for 18 h to block cells at early S-phase. To release the blocking, media was discarded and washed with 1×PBS. Then the cells were incubated with fresh cell culture media containing 10% FBS for 9 h. After releasing, second blocking was done with 2 mM thymidine containing media for 17 h. After second blocking cells were released by discarding the thymidine supplemented media and kept in fresh media. All the respective treatments for cell cycle study were done after 2 h of second release.
S-phase synchronized cells were either kept untreated or treated with compound 1 (10 μM) and 6c (10 μM) for 24 h. Cells from different treatment groups were harvested, washed with 1×PBS, and fixed with 70% ethanol and kept at −20° C. for overnight. Then the ethanol was removed and washed with 1×PBS. […] After incubation cells were collected by centrifugation, washed with 1×PBS, re-suspended in 500 μL 1×PBS, and data was recorded using flow cytometer (FACS Canto II, Becton-Dickinson, San Jose, Calif., USA) and data were analyzed with FACS Diva software. […]

[1] = test system: cancer cells T47D, OVCAR-3, MDA-MB-231, MCF-7 and B16F10; experiment: MTT viability, all tested cancer cells (combination treatment study, FIG. 1A); format: cell-based; settings: 48 h; for toxicity in cancer cells: 10 μM (1+10C: 10 μM+10 μM)
Method: FIG. 1A: The viability studies of cancer cells T47D, OVCAR-3, MDA-MB-231, MCF-7 and B16F10 after 48 h of continuous treatment with compound 1 (10 μM), 10C [cationic lipid control molecule not containing progesterone moiety]
Cytotoxicity assay of the different compounds were carried out by using 3-(4,5-dimethylthiazol-2-yl)-2,5-diphenyltetrazolium bromide (MTT). For this assay, 12-18 h before treatment cells were plated in 96-well plate at 5000 cells/well density. After incubation cells were treated continuously for 48 h with respective compounds at different concentration (2.5 μM-40 μM). After completion of the treatment, 10 μL of MTT solution (5 mg/mL) was added in each well and incubated for 4 h. Then the media was removed carefully, and the reduced MTT was dissolved in 1:1 (v/v) DMSO/Methanol and absorbance was measured using multimode reader (Synergy H1, BioTek). Results were represented as percentage of viability={[A550(treated cells)−background]/[A550(untreated cells)−background]}×100. The result was summarized and provided as IC50 table in Table 1.
For combination treatment effect, cells were plated in 96 well plates at 5000 cells/well. […] Following 48 h of treatment cell viability was measured following above mentioned MTT study.

COS-1 = experiment: MTT cytotoxicity assay, COS-1; format: cell-based; settings: Chlorocebus aethiops, read-out: IC50 COS-1
Method: as §1

HUVEC = experiment: Viability study in HUVEC cell (FIG. 7A); format: cell-based, Human; settings: 48 h
Method: 2 μM Doxorubicin (DOX) was taken as positive control. + indicates p<0.01.
T47D, MCF-7, MDA-MB-231 (human breast carcinoma), OVCAR-3 (Human ovary carcinoma), B16F10 (murine melanoma), HUVEC (Human umbilical vein endothelium) cells were purchased from the American Type Cell Culture (ATCC, USA) and CHO (Chinese hamster ovary), NIH-3T3 (murine embryo fibroblast) and COS-1 (Kidney fibroblast) cells were purchased from National Center for Cell Sciences (Pune, India). All cells were grown into mycoplasma free condition. […] All cells were grown up to 75-85% confluency after which cells were trypsinized, counted and seeded, in 96-well plates for cell viability studies, 6-well plates for apoptosis studies, 60 mm dish for cell cycle studies and in 25 cm^2 or 75 cm^2 tissue culture flasks for Western blot studies.
Cytotoxicity assay of the different compounds were carried out by using 3-(4,5-dimethylthiazol-2-yl)-2,5-diphenyltetrazolium bromide (MTT). […] Then the media was removed carefully, and the reduced MTT was dissolved in 1:1 (v/v) DMSO/Methanol and absorbance was measured using multimode reader (Synergy H1, BioTek). […]

CC(=O)[C@H]1CC[C@H]2[C@@H]3CCC4=CC(=O)CC[C@]4(C)[C@H]3CC[C@]12C [Compound 1, Progesterone]
IC50 (MCF7; MCF7, MTT, 48 h continuous treatment): > 20 µM
IC50 (B16F10; Mus musculus, B16-F10, MTT, 48 h continuous treatment, read-out: IC50 B16F10): > 20 µM
IC50 (OVCAR-3; OVCAR-3, MTT, 48 h continuous treatment): > 20 µM
IC50 (CHO; MTT, 48 h continuous treatment, non-cancer cell): > 20 µM
total cell population in G2/M phase (B16F10 (PgR-negative)): 19%
toxicity in cancer cells [1]: did not impart any significant toxicity
IC50 (COS-1; COS-1, MTT, 48 h continuous treatment, non-cancer cell): > 20 µM
effect on cell growth (HUVEC; 2.5 μM or even 10 μM): little to no effect

CCCCCCCCCC[N+](C)(CCCCCCCCCC)CCNC(=O)CCC(=O)O[C@@H](C)[C@H]1CCC2C3CCC4=CC(=O)CC[C@]4(C)C3CC[C@@]21C (stereo partly drawn) [Compound 6c, N-decyl-N-(2-(4-((1S)-1-((10R,13S,17S)-10,13-dimethyl-3-oxo-2,3,6,7,8,9,10,11,12,13,14, 15,16,17-tetradecahydro-1H-cyclopenta[a]phenanthren-17-yl)ethoxy)-4-oxobutanamido)ethyl)-N-methyldecan-1-aminium chloride]
IC50 (MCF7; MCF7, 48 h): 7.33 ± 0.19 µM
IC50 (B16F10; Mus musculus, B16-F10, 48 h, read-out: IC50 B16F10, MTT, 48 h continuous treatment): 3.63 ± 0.16 µM
IC50 (B16F10; read-out: IC50 B16F10, MTT, 48 h continuous treatment): 6.67 ± 0.27 µM
IC50 (OVCAR-3; OVCAR-3, 48 h): 4.48 ± 0.23 µM
IC50 (CHO; 48 h): 17.3 ± 0.29 µM
total cell population in G2/M phase (B16F10 (PgR-negative)): 33%
toxicity in cancer cells [1]: significant toxicity only in cancer cells
cell killing in all tested cancer cells ([1]; 2.5 μM-40 μM): significant amount of cell killing
IC50 (COS-1; COS-1, 48 h): > 20 µM
inhibition at 2.5 µM (HUVEC; Homo sapiens, 2.5 μM, read-out: inhibition of cell growth): 50%
